Measurements as given in patent publication US20160333419A1, “GENE SIGNATURES ASSOCIATED WITH SENSITIVITY TO MDM2 INHIBITORS” (DAIICHI SANKYO COMPANY, LIMITED, priority 2014, published 2016).

Legend:
Test in all cases: OncoPanel cytotoxicity assay
Type in all cases: cell-based
SNU-423 = settings: Homo sapiens, 72 hour incubation
Method in brief: (§1)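 Cells grown in RPMI 1640 with 10% FBS (or a special medium) at 37° C, 5% CO2 were treated 24 hours after seeding for 72 hours with 10 concentrations (3.16-fold dilutions, 0.1% DMSO final). Nuclei were dye-stained and imaged; IC50 was fit from percent of control relative cell count.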

CHL-1 = settings: Homo sapiens, 72 hour incubation
Method in brief: as §1

SJSA1 = settings: Homo sapiens, SJSA-1, 72 hour incubation
Method in brief: as §1

HT-29 = settings: Homo sapiens, 72 hour incubation
Method in brief: as §1

Colo 205 = settings: Homo sapiens, 72 hour incubation
Method in brief: as §1

HMCB = settings: Homo sapiens, 72 hour incubation
Method in brief: as §1

Daudi = settings: Homo sapiens, 72 hour incubation
Method in brief: as §1

5637 = settings: Homo sapiens, 72 hour incubation
Method in brief: as §1

U-87 MG = settings: Homo sapiens, 72 hour incubation
Method in brief: as §1

SK-MEL-3 = settings: Homo sapiens, SK-MEL3, 72 hour incubation
Method in brief: as §1

BT-549 = settings: Homo sapiens, 72 hour incubation
Method in brief: as §1

A204 = settings: Homo sapiens, 72 hour incubation
Method in brief: as §1

ChaGoK1 = settings: Homo sapiens, ChaGo-K-1, 72 hour incubation
Method in brief: as §1

NCI-H508 = settings: Homo sapiens, 72 hour incubation
Method in brief: as §1

Wi38 = settings: Homo sapiens, WI-38, 72 hour incubation
Method in brief: as §1

Caki-2 = settings: Homo sapiens, 72 hour incubation
Method in brief: as §1

KPL-1 = settings: Homo sapiens, 72 hour incubation
Method in brief: as §1

22Rv1 = settings: Homo sapiens, 72 hour incubation
Method in brief: as §1

Hs 578T = settings: Homo sapiens, 72 hour incubation
Method in brief: as §1

MEG01 = settings: Homo sapiens, MEG-01, 72 hour incubation
Method in brief: as §1

C32TG = settings: Homo sapiens, 72 hour incubation
Method in brief: as §1

COLO 829 = settings: Homo sapiens, 72 hour incubation
Method in brief: as §1

SW982 = settings: Homo sapiens, 72 hour incubation
Method in brief: as §1

NCI-H661 = settings: Homo sapiens, 72 hour incubation
Method in brief: as §1

SK-MEL-28 = settings: Homo sapiens, 72 hour incubation
Method in brief: as §1

HepG2 = settings: Homo sapiens, 72 hour incubation
Method in brief: as §1

MDA MB 453 = settings: Homo sapiens, 72 hour incubation
Method in brief: as §1

LS1034 = settings: Homo sapiens, LS-1034, 72 hour incubation
Method in brief: as §1

Ramos (RA 1) = settings: Homo sapiens, 72 hour incubation
Method in brief: as §1

SK-N-FI = settings: Homo sapiens, 72 hour incubation
Method in brief: as §1

SW1783 = settings: Homo sapiens, 72 hour incubation
Method in brief: as §1

J-RT3-T3-5 = settings: Homo sapiens, 72 hour incubation
Method in brief: as §1

MeWo = settings: Homo sapiens, 72 hour incubation
Method in brief: as §1

DBTRG-05MG = settings: Homo sapiens, 72 hour incubation
Method in brief: as §1

Hs 294T = settings: Homo sapiens, 72 hour incubation
Method in brief: as §1

CGTH-W-1 = settings: Homo sapiens, 72 hour incubation
Method in brief: as §1

MX1 = settings: Homo sapiens, 72 hour incubation
Method in brief: as §1

BPH1 = settings: Homo sapiens, BPH-1, 72 hour incubation
Method in brief: as §1

C-4 I = settings: Homo sapiens, 72 hour incubation
Method in brief: as §1

CC[C@@H]1CNC2(CC2)CN1C(=O)[C@@H]1C[C@@H](F)CN1C(=O)C1=C(C(C)C)N2C(=N[C@@](C)(c3ccc(Cl)nc3)[C@H]2c2ccc(Cl)c(F)c2)S1 [Compound A, [(5R,6S)-5-(4-Chloro-3-fluorophenyl)-6-(6-chloropyridin-3-yl)-6-methyl-3-(propan-2-yl)-5,6-dihydroimidazo[2,1-b][1,3]thiazol-2-yl][(2S,4R)-2-{[(6R)-6-ethyl-4,7-diazaspiro[2.5]oct-7-yl]carbonyl}-4-fluoropyrrolidin-1-yl]methanone]
IC50 (SNU-423): > 40 µM
IC50 (CHL-1): > 40 µM
IC50 (SJSA1): 0.214 µM
IC50 (HT-29): 33.5 µM
IC50 (Colo 205): 36.7 µM
IC50 (HMCB): > 40 µM
IC50 (Daudi): 0.599 µM
IC50 5637: > 40 µM
IC50 (U-87 MG): 0.261 µM
IC50 (SK-MEL-3): > 40 µM
IC50 (BT-549): > 40 µM
IC50 (A204): 0.755 µM
IC50 (ChaGoK1): > 40 µM
IC50 (NCI-H508): > 40 µM
IC50 (Wi38): 0.171 µM
IC50 (Caki-2): 0.472 µM
IC50 (KPL-1): 0.455 µM
IC50 (22Rv1): 1.31 µM
IC50 (Hs 578T): > 40 µM
IC50 (MEG01): > 40 µM
IC50 (C32TG): 0.36 µM
IC50 (COLO 829): 0.289 µM
IC50 (SW982): 0.232 µM
IC50 (NCI-H661): > 40 µM
IC50 (SK-MEL-28): > 40 µM
IC50 (HepG2): 0.335 µM
IC50 (MDA MB 453): 32.8 µM
IC50 (LS1034): > 40 µM
IC50 (Ramos (RA 1)): > 40 µM
IC50 (SK-N-FI): > 40 µM
IC50 (SW1783): > 40 µM
IC50 (J-RT3-T3-5): > 40 µM
IC50 (MeWo): > 40 µM
IC50 (DBTRG-05MG): 0.132 µM
IC50 (Hs 294T): 1.23 µM
IC50 (CGTH-W-1): > 40 µM
IC50 (MX1): 39 µM
IC50 (BPH1): > 40 µM
IC50 (C-4 I): > 40 µM

CC1(C)CCC2(CC1)N[C@@H](C(=O)N[C@@H]1CC[C@@H](C(N)=O)OC1)[C@H](c1ccnc(Cl)c1F)[C@]21C(=O)Nc2cc(Cl)ccc21 [Compound B, (3′R,4′S,5′R)—N-[(3R,6S)-6-carbamoyltetrahydro-2H-pyran-3-yl]-6″-chloro-4′-(2-chloro-3-fluoropyridin-4-yl)-4,4-dimethyl-2″-oxo-1″,2″-dihydrodispiro[cyclohexane-1,2′-pyrrolidine-3′,3″-indole]-5′-carboxamide]
IC50 (SNU-423): > 10 µM
IC50 (CHL-1): 9.1 µM
IC50 (SJSA1): 0.0261 µM
IC50 (HT-29): 5.14 µM
IC50 (Colo 205): 9.48 µM
IC50 (HMCB): 5.49 µM
IC50 (Daudi): 0.132 µM
IC50 5637: > 10 µM
IC50 (U-87 MG): 0.0376 µM
IC50 (SK-MEL-3): > 10 µM
IC50 (BT-549): > 10 µM
IC50 (A204): 0.0294 µM
IC50 (ChaGoK1): > 10 µM
IC50 (NCI-H508): > 10 µM
IC50 (Wi38): 0.0379 µM
IC50 (Caki-2): 0.0821 µM
IC50 (KPL-1): 0.031 µM
IC50 (22Rv1): 0.109 µM
IC50 (Hs 578T): > 10 µM
IC50 (MEG01): 9.7 µM
IC50 (C32TG): 0.0329 µM
IC50 (COLO 829): 0.0266 µM
IC50 (SW982): 0.0209 µM
IC50 (NCI-H661): 6.59 µM
IC50 (SK-MEL-28): > 10 µM
IC50 (HepG2): 0.0584 µM
IC50 (MDA MB 453): 9.29 µM
IC50 (LS1034): > 10 µM
IC50 (Ramos (RA 1)): 8.66 µM
IC50 (SK-N-FI): > 10 µM
IC50 (SW1783): > 10 µM
IC50 (J-RT3-T3-5): > 10 µM
IC50 (MeWo): > 10 µM
IC50 (DBTRG-05MG): 0.0846 µM
IC50 (Hs 294T): 3.24 µM
IC50 (CGTH-W-1): 8.04 µM
IC50 (MX1): 9.16 µM
IC50 (BPH1): > 10 µM
IC50 (C-4 I): 7.21 µM
